The values that follow come from ChEMBL document CHEMBL5729301, “ASK1 inhibitor compounds and uses thereof” (2022).

For orientation: IC50 means the point on the concentration scale where inhibition reaches its midpoint. Higher therefore signals weaker potency in that assay.

The assay addresses T1, Mitogen-activated protein kinase kinase kinase 5 (Homo sapiens, UniProt Q99683).
T1 sequence (Q99683 whole entry): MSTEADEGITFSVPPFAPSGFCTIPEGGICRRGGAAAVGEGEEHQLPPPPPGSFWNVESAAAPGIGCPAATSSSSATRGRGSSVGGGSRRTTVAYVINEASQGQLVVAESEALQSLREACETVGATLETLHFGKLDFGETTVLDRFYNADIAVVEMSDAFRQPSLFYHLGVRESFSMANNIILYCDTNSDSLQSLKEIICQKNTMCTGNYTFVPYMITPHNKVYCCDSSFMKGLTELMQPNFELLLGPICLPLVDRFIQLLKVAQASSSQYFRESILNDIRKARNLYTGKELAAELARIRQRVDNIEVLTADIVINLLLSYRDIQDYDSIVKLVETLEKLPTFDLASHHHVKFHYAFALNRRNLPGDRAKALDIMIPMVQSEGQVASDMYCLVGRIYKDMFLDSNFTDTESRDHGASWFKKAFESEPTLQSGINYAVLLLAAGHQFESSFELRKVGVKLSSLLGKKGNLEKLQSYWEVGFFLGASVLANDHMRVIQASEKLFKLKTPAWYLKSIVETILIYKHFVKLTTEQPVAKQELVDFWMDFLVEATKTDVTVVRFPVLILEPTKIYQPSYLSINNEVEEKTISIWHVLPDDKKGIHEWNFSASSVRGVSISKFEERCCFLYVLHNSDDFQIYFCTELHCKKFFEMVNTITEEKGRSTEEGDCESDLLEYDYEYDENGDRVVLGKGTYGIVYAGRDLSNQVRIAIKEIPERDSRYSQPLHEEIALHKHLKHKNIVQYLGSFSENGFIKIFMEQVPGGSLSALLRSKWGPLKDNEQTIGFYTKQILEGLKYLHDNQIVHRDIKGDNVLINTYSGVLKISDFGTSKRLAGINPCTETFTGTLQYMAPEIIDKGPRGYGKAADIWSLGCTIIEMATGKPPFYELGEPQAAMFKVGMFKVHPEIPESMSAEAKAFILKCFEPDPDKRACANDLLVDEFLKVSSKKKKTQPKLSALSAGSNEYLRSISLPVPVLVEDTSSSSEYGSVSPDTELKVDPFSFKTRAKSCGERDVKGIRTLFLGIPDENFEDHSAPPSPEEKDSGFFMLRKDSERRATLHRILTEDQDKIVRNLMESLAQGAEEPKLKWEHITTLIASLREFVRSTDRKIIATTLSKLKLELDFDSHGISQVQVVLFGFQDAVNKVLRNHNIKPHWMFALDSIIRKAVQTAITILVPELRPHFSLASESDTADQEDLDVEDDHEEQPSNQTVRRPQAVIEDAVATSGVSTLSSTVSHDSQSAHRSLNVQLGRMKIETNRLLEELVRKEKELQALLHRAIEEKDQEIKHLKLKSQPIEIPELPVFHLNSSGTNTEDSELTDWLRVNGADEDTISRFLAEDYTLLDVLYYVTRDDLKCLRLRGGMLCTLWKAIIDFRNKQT
The assay can be described thus: Kinase Assay: The ASK1 enzymatic assay was run following Promega ASK1 Kinase Enzyme System (Cat #V3881). The kit provides the protocol, enzymes and all reagents necessary to run an assay.The compounds, enzyme, substrate and ATP were diluted in provided assay buffer. The final concentration of the enzyme was 50 nM, substrate (Myelin basic protein) 1 μg/mL and ATP 10 μM. The compound and the enzyme were pre-incubated in a 384-well white solid bottom plate (Greiner, Cat #784075) for 10 minutes. After incubation, the substrate and ATP were added and incubated for an additional 60 minutes. After 60 minutes, ADP-Glo™ was added and the plate was incubated for another 40 minutes. After 40 minutes, Kinase Detection Reagent was added and the plate was incubated for 45 minutes. After 45 minutes, the plate was read on a Perkin Elmer EnVision using luminescence read (0.5 seconds/well).

The compound `CC(=O)Nc1cccc(-c2cc3c(s2)C(=O)N(c2cccc(-c4nncn4C4CC4)n2)C3)c1` gave an IC50 below 1000 nM.
